The values below come from PMC7139804 (2020).

Each structure is given as a SMILES string.

In experiment [1] the test system is CPG-tel26 (DNA, G4) TTAGGGTTAGGGTTAGGGTTAGGGTT
The experiment is described as follows: G4-CPG affinity chromatography. As to conditions: 50 mM KCl; washing solution with 10% DMSO, 10% ethanol; oligonucleotide on CPG; errors within ± 2%.

In experiment [2] the test system is CPG-ds27 (DNA, hairpin) CGCGAATTCGCGTTTCGCGAATTCGCG
The experiment is described as follows: G4-CPG affinity chromatography. As to conditions: 50 mM KCl; washing solution with 10% DMSO, 10% ethanol; oligonucleotide on CPG; errors within ± 2%.

Experiment [3] concerns CPG-cmyc (DNA, G4) TGGGGAGGGTGGGGAGGGTGGGGAAGGTGGGGA
The experiment is described as follows: G4-CPG affinity chromatography. As to conditions: 50 mM KCl; washing solution with 10% DMSO, 10% ethanol; oligonucleotide on CPG; errors within ± 2%.

The test system of experiment [4] is tel26 (DNA, G4) TTAGGGTTAGGGTTAGGGTTAGGGTT
The experiment is described as follows: fluorescence titration and Job plot. As to conditions: 20 mM KCl, 5 mM KH2PO4; 10% DMSO, pH 7, 20 °C; 2 µM ligand, DNA up to 10 µM; no tight binding.

Experiment [5] deals with cmyc (DNA, G4) TGGGGAGGGTGGGGAGGGTGGGGAAGGTGGGGA
The experiment is described as follows: fluorescence titration and Job plot. As to conditions: 20 mM KCl, 5 mM KH2PO4; 10% DMSO, pH 7, 20 °C; 2 µM ligand, DNA up to 10 µM; no tight binding.

The test system of experiment [6] is ds27 (DNA, hairpin) CGCGAATTCGCGTTTCGCGAATTCGCG
Put plainly: fluorescence titration and Job plot. As to conditions: 20 mM KCl, 5 mM KH2PO4; 10% DMSO, pH 7, 20 °C; 2 µM ligand, DNA up to 10 µM; no tight binding.

In experiment [7] the test system is tel26 (DNA, G4) TTAGGGTTAGGGTTAGGGTTAGGGTT
Put plainly: CD melting at 290 nm. As to conditions: 20 mM KCl, 5 mM KH2PO4; 10% DMSO, pH 7; 2 µM DNA, 12 µM compound (1:6).

Experiment [8] shares this test system. The experiment is described as follows: fluorescence titration, independent equivalent-sites fit. As to conditions: 20 mM KCl, 5 mM KH2PO4, 10% DMSO, pH 7, 20 °C, 2 µM ligand.
Experiment [9] relates to cmyc (DNA, G4) TGGGGAGGGTGGGGAGGGTGGGGAAGGTGGGGA
The description is as above. As to conditions: 20 mM KCl, 5 mM KH2PO4, 10% DMSO, pH 7, 20 °C, 2 µM ligand.

For experiment [10], the system named is ds27 (DNA, hairpin) CGCGAATTCGCGTTTCGCGAATTCGCG
Described as above. As to conditions: 20 mM KCl, 5 mM KH2PO4, 10% DMSO, pH 7, 20 °C, 2 µM ligand.

On to `CN(C)CCCN1C(=O)c2ccc3c4c(c(NCCOCCOCCN)cc(c24)C1=O)C(=O)N(CCCN(C)C)C3=O`, for which the “Bound Ligand (%)” value stood at 97% in experiment [1] and 41% in [2].

`CN(C)CCCN1C(=O)c2ccc3c4c(c(NCCOCCOCCNc5cc6c7c(ccc8c7c5C(=O)N(CCCCCC(=O)O)C8=O)C(=O)N(CCCCCC(=O)O)C6=O)cc(c24)C1=O)C(=O)N(CCCN(C)C)C3=O`: the figures for the “Bound Ligand (%)” value in experiment [1], in experiment [3] and in experiment [2] were 85%, 79% and 34%, respectively.

Take `CN(C)CCCN1C(=O)c2ccc3c4c(c(NCCCCCCCNc5cc6c7c(ccc8c7c5C(=O)N(CCCCCC(=O)O)C8=O)C(=O)N(CCCCCC(=O)O)C6=O)cc(c24)C1=O)C(=O)N(CCCN(C)C)C3=O`: the “Bound Ligand (%)” value is listed as 77% in [1] and 61% in [2].

`CN(C)CCCN1C(=O)c2ccc3c4c(c(NCCCCCCCN)cc(c24)C1=O)C(=O)N(CCCN(C)C)C3=O`: the “Bound Ligand (%)” value in experiment [1] is on record as 100%; in experiment [3], 97%; in experiment [2], 48%.

With `CN(C)CCCN1C(=O)c2ccc3c4c(c(NCCOCCOCCNc5cc6c7c(c(Br)cc8c7c5C(=O)N(CCCCCC(=O)O)C8=O)C(=O)N(CCCCCC(=O)O)C6=O)cc(c24)C1=O)C(=O)N(CCCN(C)C)C3=O`, the “Bound Ligand (%)” value in [1] turned out to be 68%; in experiment [3] it was 79%; in experiment [2], 33%. Also, the binding result in experiment [4], in experiment [5] and in experiment [6] was “weak” each time.

As for `CN(C)CCCN1C(=O)c2cc(NCCOCCOCCNc3cc4c5c(ccc6c5c3C(=O)N(CCCCCC(=O)O)C6=O)C(=O)N(CCCCCC(=O)O)C4=O)c3c4c(cc(Br)c(c24)C1=O)C(=O)N(CCCN(C)C)C3=O`, the results for the “Bound Ligand (%)” value in [1], in experiment [3] and in [2] were 67%, 64% and 29%, respectively.

Take `CN(C)CCCNc1cc2c3c(c(NCCOCCOCCNc4cc5c6c(ccc7c6c4C(=O)N(CCCCCC(=O)O)C7=O)C(=O)N(CCCCCC(=O)O)C5=O)cc4c3c1C(=O)N(CCCN(C)C)C4=O)C(=O)N(CCCN(C)C)C2=O`: the “Bound Ligand (%)” value in experiment [1] was 90%; in experiment [3] it was 87%; in experiment [2], 71%.

Take `CN(C)CCCN1C(=O)c2ccc3c4c(c(NCCOCCO)cc(c24)C1=O)C(=O)N(CCCN(C)C)C3=O`: the ΔTm entry in experiment [7] was “+15 °C”. In addition, the “Bound Ligand (%)” value in [1] is on record as 99%; in [3] it was 99%; in [2] it was 30%. Further, the Kb is given as 2.4 (±0.1) × 10^7 M^−1 in [8], 2.6 (±0.2) × 10^7 M^−1 in [9] and 1.9 (±0.2) × 10^7 M^−1 in [10].

Regarding `CN(C)CCCN1C(=O)c2cc(NCCCCCCCNc3cc4c5c(ccc6c5c3C(=O)N(CCCCCC(=O)O)C6=O)C(=O)N(CCCCCC(=O)O)C4=O)c3c4c(cc(Br)c(c24)C1=O)C(=O)N(CCCN(C)C)C3=O`, the “Bound Ligand (%)” value in [1] is 75%; in experiment [3], 79%; in experiment [2] it was 71%.

As to `CCCNc1cc2c3c(c(NCCCN(C)C)cc4c3c1C(=O)N(CCCN(C)C)C4=O)C(=O)N(CCCN(C)C)C2=O`, the “Bound Ligand (%)” value was 92% in [1] and 46% in experiment [2].

Consider `CN(C)CCCN1C(=O)c2cc(NCCOCCOCCNc3cc4c5c(c(Br)cc6c5c3C(=O)N(CCCCCC(=O)O)C6=O)C(=O)N(CCCCCC(=O)O)C4=O)c3c4c(cc(Br)c(c24)C1=O)C(=O)N(CCCN(C)C)C3=O`, for which the “Bound Ligand (%)” value turned out to be 73% in [1] and 38% in experiment [2].

For the compound `CCCNc1cc2c3c(ccc4c3c1C(=O)N(CCCN(C)C)C4=O)C(=O)N(CCCN(C)C)C2=O`, the “Bound Ligand (%)” value was 85% in experiment [1], 95% in experiment [3] and 50% in [2].
